Patent US10723753B2, “Ras inhibitors and uses thereof” (Dana-Farber Cancer Institute, Inc., priority 2013, dated 2020)

Biological target: K-Ras G12C (Homo sapiens, UniProt P01116, G12C)
Test: Fluorescence polarization assay of K-Ras G12C binding to Oregon green labelled RBD
Conditions: for EC50: Ras:Raf (RBD) binding, 95% CI given alongside, read-out: EC50 of nucleotide:Ras complex for RBD
Description: Oregon green (OG) fluorescent dye was coupled to this cysteine in RBD using maleimide chemistry resulting in covalent addition of one OG, as verified by chromatography and mass spectrometry.
This allowed the testing of multiple nucleotides for their ability to induce Ras:Raf binding.

EC50 (fluorescence polarization)	Effect on binding of G12C K-Ras to the RBD protein (added at a 1:10 molar ratio to G12C K-Ras prior to the assay)	Structure (SMILES)	Interaction of ligand-bound K-Ras G12C with RBD (fluorescence polarization, OG-labelled RBD, recombinant K-Ras G12C bound to the named ligand)
26 nM	–	Nc1nc2c(ncn2[C@@H]2O[C@H](COP(=O)(O)OP(=O)(O)OP(=O)(O)O)[C@@H](O)[C@H]2O)c(=O)[nH]1 [GTP]	higher affinity for RBD than the GDP bound form
–	appeared to prevent binding	CCCC(CCC)COC(=O)[C@H](C)NP(=O)(OCCNC(=O)CCl)OP(=O)(O)OC[C@H]1O[C@@H](n2cnc3c(=O)[nH]c(N)nc32)[C@H](O)[C@@H]1O (stereo partly drawn) [Example 3, (2S)-2-propylpentyl 2-(((((((2R,3S,4R,5R)-5-(2-amino-6-oxo-1H-purin-9(6H)-yl)-3,4-dihydroxytetrahydrofuran-2-yl)methoxy)(hydroxy)phosphoryl)oxy)(2-(2-chloroacetamido)ethoxy)phosphoryl)amino)propanoate]	–
108 nM	–	Nc1nc2c(ncn2[C@@H]2O[C@H](COP(=O)(O)OP(=O)(O)O)[C@@H](O)[C@H]2O)c(=O)[nH]1 [GDP]	–
